Experimental findings from patent publication US20260347372A1, “SMALL MOLECULE INHIBITORS OF KRAS G12D MUTANT” (MERCK SHARP & DOHME LLC, priority 2023, published 2026) are described below.

Structures are written as SMILES.

In one test the target is KRAS WT (Homo sapiens, UniProt P01116). Description: SOS-catalyzed nucleotide exchange assay, KRAS WT (Procedure A). In kind it is biochemical. To be noted: GNE. In a few lines:
(§1)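 60 min cpd preinc. w/ RAS–Bodipy-GDP–Tb-SA complex; + hSOS/GTP (3 mM final), RT. G12C 3 nM RAS/40 nM SOS; WT, G12D 1 nM/40 nM; 60 min rxn. G13D 1.25 nM, no SOS, 30 min rxn. HEPES pH 7.5, 10 mM MgCl2. Ratio 520/495, norm. to DMSO/max-inhibitor ctrls.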

The target of another test is KRAS G12C (Homo sapiens, UniProt P01116, C118S/C51S/C80L/G12C). Nature of the test: SOS-catalyzed nucleotide exchange assay, KRAS G12C (Procedure A). In kind it is biochemical. To be noted: GNE. In outline:
as §1

The next test deals with KRAS G13D (Homo sapiens, UniProt P01116, G13D). Nature of the test: SOS-catalyzed nucleotide exchange assay, KRAS G13D (Procedure A). As to conditions: GNE. Format: biochemical. In a few lines: as §1
Sequence of KRAS G13D (P01116 with tags, fused parts or gaps isoform P01116-2 G13D): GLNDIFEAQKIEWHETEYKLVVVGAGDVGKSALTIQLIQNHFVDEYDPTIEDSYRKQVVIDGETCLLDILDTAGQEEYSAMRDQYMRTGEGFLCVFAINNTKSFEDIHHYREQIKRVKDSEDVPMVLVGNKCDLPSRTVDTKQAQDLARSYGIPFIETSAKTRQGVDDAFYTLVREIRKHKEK
The next test has as its target T1, PANC08.13 cells (Homo sapiens, UniProt P01116, G12D).
T1 construct: p-ERK/total ERK AlphaSureFire read-out
Description: Cellular phospho-ERK assay, PANC08.13 cells (KRAS G12D). In kind it is cell-based. To be noted: 2 hours, read-out: PANCO 813 pERK IC50. How it is done: Procedure for Cellular Phospho-ERK Assay in KRAS Wild Type and Mutant (G12D, G12V) Cell Lines
PANC08.13 cells (ATCC® CRL-2551™), containing homozygous KRAS-G12D activating mutation, were cultured in growth medium made of RPMI1640-GlutaMAX™-I (ThermoFisher Scientific 61870) containing 15% heat inactivated fetal bovine serum (ThermoFisher Scientific 10091148)). AsPC-1 cells (ATCC® CRL-1682™), containing homozygous KRAS-G12D activating mutation, were cultured in T150 flask in growth medium (RPMI medium 1640-GlutaMAX™-I (ThermoFisher Scientific 61870) containing 10% fetal bovine serum (ThermoFisher Scientific 10091148)).
Cells for the assay were harvested in growth medium after TrypLE (ThermoFisher scientific 12604021) digestion and were seeded in a 384-well collagen coated cell culture plate (Corning 356702) at a density of 10,000-15,000 cells/20 μL/well, and incubated at 37° C., 5% CO2 overnight. The compound (with 10 mM stock concentration) dose-response titrations were prepared [30 μM final ERK detection assay concentration and 1:3 dilutions, 10-point dose response] and appropriate amounts (270 nL) of test compounds were dispensed in a 384-well intermediate plate using an Echo 550 liquid handler. 30 μL/well of RPMI medium 1640-GlutaMAX™-I was added to the intermediate plate and the contents of the intermediate plate (10 μL/well) were then transferred to the 384-well collagen coated cell culture plate, which was incubated at 37° C., 5% CO2 for 2 hours. After removal of medium from the collagen coated cell culture plate, cells were lysed in lysis buffer from Alpha SureFire® Ultra™ Multiplex p-ERK and total ERK assay kit (PerkinElmer MPSU-PTERK) containing Halt™ Protease and Phosphatase inhibitor cocktail (ThermoFisher Scientific 78446) at room temperature with constant shaking at 300 rpm for 30 minutes. The cell lysates were then transferred to an OptiPlate-384 plate (PerkinElmer 6005620), and the phosphorylation of ERK (p-ERK) and total ERK levels were detected by Alpha SureFire® Ultra™ Multiplex p-EEK kit and total ERK assay kit (PerkinElmer MPSU-PTERK) following the manufacturer's protocol. Assay plates were read on a EnVision Multimode Plate Reader (PerkinElmer), and the ratio of p-ERK vs. total ERK in each well was used as the final readout. Dose response curves were analyzed using a 4-parameter logistic model to calculate IC50 values using Spotfire software.

Another test has as its target KRAS G12D (Homo sapiens, UniProt P01116, G12D). Nature of the test: SOS-catalyzed nucleotide exchange assay, KRAS G12D (Procedure A). Format: biochemical. As to conditions: guanine nucleotide exchange (GNE). In outline: as §1
The next test concerns the target KRAS G12V (Homo sapiens, UniProt P01116, G12V). Nature of the test: SOS-catalyzed nucleotide exchange assay, KRAS G12V (Procedure A). In kind it is biochemical. As to conditions: GNE. In a few lines:
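Biotinylated KRAS G12V was loaded with Bodipy-GDP alongside Terbium-streptavidin to form a TR-FRET complex, which was preincubated with compounds for 60 minutes in 384-well plates. Human SOS protein and unlabeled GTP were then added for 90 minutes, giving final concentrations of 1.25 nM KRAS-G12V, 160 nM SOS and 3 mM GTP. The 520/495 nm emission ratio was read on an Envision.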

The target of another test is HRAS (Homo sapiens, UniProt P01112). Nature of the test: SOS-catalyzed nucleotide exchange assay, HRAS (Procedure A). In kind it is biochemical. To be noted: GNE. In outline: as §1
Sequence of HRAS (P01112 with tags, fused parts or gaps): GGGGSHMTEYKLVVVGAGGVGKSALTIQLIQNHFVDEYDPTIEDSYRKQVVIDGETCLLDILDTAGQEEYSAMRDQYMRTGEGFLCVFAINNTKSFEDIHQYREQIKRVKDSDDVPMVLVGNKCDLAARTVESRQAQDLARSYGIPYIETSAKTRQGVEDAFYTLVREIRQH
The next test has as its target NRAS (Homo sapiens, UniProt P01111). Nature of the test: SOS-catalyzed nucleotide exchange assay, NRAS (Procedure A). In kind it is biochemical. As to conditions: GNE. In outline:
as §1

T1 sequence (P01116 1-188 isoform P01116-2 G12D): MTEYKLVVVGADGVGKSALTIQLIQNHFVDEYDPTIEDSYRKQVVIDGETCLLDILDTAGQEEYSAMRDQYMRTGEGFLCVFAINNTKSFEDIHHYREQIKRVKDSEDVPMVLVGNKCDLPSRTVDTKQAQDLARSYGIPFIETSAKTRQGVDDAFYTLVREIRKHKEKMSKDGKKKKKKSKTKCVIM
Sequence of KRAS WT (P01116 with tags, fused parts or gaps isoform P01116-2): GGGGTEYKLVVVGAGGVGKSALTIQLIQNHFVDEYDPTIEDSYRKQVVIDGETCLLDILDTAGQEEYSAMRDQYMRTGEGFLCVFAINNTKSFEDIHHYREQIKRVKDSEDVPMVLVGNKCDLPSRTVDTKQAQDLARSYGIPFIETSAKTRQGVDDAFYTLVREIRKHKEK
Sequence of KRAS G12C (P01116 with tags, fused parts or gaps isoform P01116-2 G12C/C51S/C80L/C118S): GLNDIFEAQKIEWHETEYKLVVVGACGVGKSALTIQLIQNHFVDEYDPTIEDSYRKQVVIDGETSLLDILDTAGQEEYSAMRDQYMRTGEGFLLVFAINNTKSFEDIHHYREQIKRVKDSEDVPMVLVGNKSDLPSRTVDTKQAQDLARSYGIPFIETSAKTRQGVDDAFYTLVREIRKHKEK
Sequence of KRAS G12V (P01116 with tags, fused parts or gaps isoform P01116-2 G12V): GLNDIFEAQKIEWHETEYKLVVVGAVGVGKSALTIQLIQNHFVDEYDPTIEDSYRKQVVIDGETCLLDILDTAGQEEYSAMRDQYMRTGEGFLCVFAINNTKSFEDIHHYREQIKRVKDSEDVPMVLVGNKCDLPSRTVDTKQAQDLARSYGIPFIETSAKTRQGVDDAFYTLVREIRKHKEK
Sequence of KRAS G12D (P01116 with tags, fused parts or gaps isoform P01116-2 G12D): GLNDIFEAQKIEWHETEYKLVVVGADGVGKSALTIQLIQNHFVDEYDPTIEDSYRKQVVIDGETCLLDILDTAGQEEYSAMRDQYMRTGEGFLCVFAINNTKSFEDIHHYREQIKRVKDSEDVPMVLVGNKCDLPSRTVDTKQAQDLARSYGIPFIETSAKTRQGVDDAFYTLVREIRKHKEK
Sequence of NRAS (P01111 with tags, fused parts or gaps): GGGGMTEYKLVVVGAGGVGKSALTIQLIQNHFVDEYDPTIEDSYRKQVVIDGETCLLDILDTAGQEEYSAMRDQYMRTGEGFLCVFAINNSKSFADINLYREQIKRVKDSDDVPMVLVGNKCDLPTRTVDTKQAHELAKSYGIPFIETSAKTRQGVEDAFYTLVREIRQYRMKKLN

In general, IC50 refers to the midpoint of a concentration-inhibition curve. For the compound `Cn1c2nc(OC[C@]3(CO)CC3(F)F)nc(N3C[C@H]4CC[C@@H](C3)N4)c2c2ccnc(-c3ccc(F)c4sc(N)c(C#N)c34)c21` [Ex-62, 4-(4-((1R,5S)-3,8-diazabicyclo[3.2.1]octan-3-yl)-2-(((R)-2,2-difluoro-1-(hydroxymethyl)cyclopro-pyl)methoxy)-9-methyl-9H-pyrido[4′,3′:4,5]pyrrolo[2,3-d]pyrimidin-8-yl)-2-amino-7-fluorobenzo[b]thiophene-3-carbonitrile], the half-maximal inhibitory concentration (IC50) against KRAS WT was > 11.1 µM; on KRAS G12C, 8.49 µM; on KRAS G13D, 1.54 µM; on PANC08.13 cells it was > 10 µM; on KRAS G12D, 0.645 µM; against KRAS G12V, > 11.1 µM. In addition, the IC50 at HRAS and against NRAS was > 11.1 µM in each case.

Regarding `C#Cc1c(F)ccc2cc(N)nc(-c3nccc4c5c(N6C[C@H]7CC[C@@H](C6)N7)nc(OC[C@@]67CCCN6C[C@H](F)C7)nc5n(C)c34)c12` [Ex-7, 1-(4-((1R,5S)-3,8-diazabicyclo[3.2.1]octan-3-yl)-2-(((2R,7aS)-2-fluorotetrahydro-1H-pyrrolizin-7a(5H)-yl)methoxy)-9-methyl-9H-pyrido[4′,3′:4,5]pyrrolo[2,3-d]pyrimidin-8-yl)-8-ethynyl-7-fluoroisoquinolin-3-amine], the 50% inhibitory concentration (IC50) against KRAS WT was > 11.1 µM; against KRAS G12C, > 11.1 µM; on KRAS G13D, 1.45 µM; at PANC08.13 cells it was 0.572 µM; against KRAS G12D it was 0.051 µM; at KRAS G12V, > 11.1 µM. The IC50 against HRAS and against NRAS was > 11.1 µM in each case.

Consider `Cc1cc2[nH]ncc2c(-c2nccc3c4c(N5CC[C@H]6NCC[C@H]65)nc(OC[C@@]56CCCN5C[C@H](F)C6)nc4n(C)c23)c1C(F)(F)F` [Ex-66, 2-(((2R,7aS)-2-fluorotetrahydro-1H-pyrrolizin-7a(5H)-yl)methoxy)-4-((3aR,6aR)-hexahydropyrrolo[3,2-b]pyrrol-1(2H)-yl)-9-methyl-8-(6-methyl-5-(trifluoromethyl)-1H-indazol-4-yl)-9H-pyrido[4′,3′:4,5]pyrrolo[2,3-d]pyrimidine], for which the half-maximal inhibitory concentration (IC50) was 6.33 µM at KRAS WT; 1.69 µM on KRAS G12C; 1.5 µM at KRAS G13D; 1.26 µM on PANC08.13 cells; 0.202 µM against KRAS G12D; > 11.1 µM at KRAS G12V. The IC50 against HRAS and against NRAS was > 11.1 µM throughout.

Regarding `Cn1c2nc(OC[C@@]34CCCN3C[C@H](F)C4)nc(N3C[C@H]4CC[C@@H](C3)N4)c2c2ccnc(-c3ccc(F)c4sc(N)c(C#N)c34)c21` [Ex-5, 4-(4-((1R,5S)-3,8-diazabicyclo[3.2.1]octan-3-yl)-2-(((2R,7aS)-2-fluorotetrahydro-1H-pyrrolizin-7a(5H)-yl)methoxy)-9-methyl-9H-pyrido[4′,3′:4,5]pyrrolo[2,3-d]pyrimidin-8-yl)-2-amino-7-fluorobenzo[b]thiophene-3-carbonitrile], the IC50 against KRAS WT is > 11.1 µM; on KRAS G12C it was > 11.1 µM; at KRAS G13D, 0.349 µM; on PANC08.13 cells, 1.19 µM; against KRAS G12D it was 0.018 µM; against KRAS G12V, > 11.1 µM. In addition, the IC50 at HRAS and at NRAS was > 11.1 µM each time.

As to `N#Cc1c(N)sc2c(F)ccc(-c3nccc4c3sc3nc(OC[C@@]56CCCN5C[C@H](F)C6)nc(N5C[C@H]6CC[C@@H](C5)N6)c34)c12` [Ex-17, 4-(4-((1R,5S)-3,8-diazabicyclo[3.2.1]octan-3-yl)-2-(((2R,7aS)-2-fluorotetrahydro-1H-pyrrolizin-7a(5H)-yl)methoxy)pyrido[4′,3′:4,5]thieno [2,3-d]pyrimidin-8-yl)-2-amino-7-fluorobenzo[b] thiophene-3-carbonitrile], the IC50 at KRAS WT is > 11.1 µM; against KRAS G12C it was > 11.1 µM; on KRAS G13D, > 11.1 µM; on PANC08.13 cells, 1.64 µM; on KRAS G12D it was 0.024 µM; against KRAS G12V, > 11.1 µM. Also, the IC50 at HRAS and against NRAS was > 11.1 µM in each case.

For `Cc1cc2[nH]nc(C#N)c2c(-c2nccc3c4c(N5C[C@H]6CC[C@@H](C5)N6)nc(OC[C@@]56CCCN5C[C@H](F)C6)nc4n(C)c23)c1C(F)F` (single isomer, unassigned) [Ex-4], the half-inhibitory concentration (IC50) at KRAS WT is > 11.1 µM; against KRAS G12C, > 11.1 µM; on KRAS G13D, 4.02 µM; on PANC08.13 cells it was 3.75 µM; against KRAS G12D, 0.119 µM; against KRAS G12V, > 11.1 µM. Besides, the IC50 against HRAS and on NRAS was > 11.1 µM in each case.

Consider `Cc1cc(N)nc(-c2nccc3c4c(N5C[C@H]6CC[C@@H](C5)N6)nc(OC[C@@]56CCCN5C[C@H](F)C6)nc4n(C)c23)c1C(F)(F)F` [Ex-6, 6-(4-((1R,5S)-3,8-diazabicyclo[3.2.1]octan-3-yl)-2-(((2R,7aS)-2-fluorotetrahydro-1H-pyrrolizin-7a(5H)-yl)methoxy)-9-methyl-9H-pyrido[4′,3′:4,5]pyrrolo[2,3-d]pyrimidin-8-yl)-4-methyl-5-(trifluoromethyl)pyridin-2-amine], for which the IC50 was > 11.1 µM against KRAS WT; > 11.1 µM on KRAS G12C; > 11.1 µM on KRAS G13D; 9.85 µM on PANC08.13 cells; 0.906 µM at KRAS G12D; > 11.1 µM on KRAS G12V. Further, the half-inhibitory concentration (IC50) against HRAS and against NRAS was > 11.1 µM throughout.

For the compound `Cc1cc2[nH]ncc2c(-c2nccc3c2oc2nc(OC[C@@]45CCCN4C[C@H](F)C5)nc(N4C[C@H]5CC[C@@H](C4)N5)c23)c1C(F)(F)F` [Ex-78, 4-((1R,5S)-3,8-diazabicyclo[3.2.1]octan-3-yl)-2-(((2R,7aS)-2-fluorotetrahydro-1H-pyrrolizin-7a(5H)-yl)methoxy)-8-(6-methyl-5-(trifluoromethyl)-1H-indazol-4-yl)pyrido[4′,3′:4,5]furo[2,3-d]pyrimidine], the half-inhibitory concentration (IC50) was > 11.1 µM at KRAS WT; > 11.1 µM against KRAS G12C; > 11.1 µM against KRAS G13D; 2.65 µM on PANC08.13 cells; 0.728 µM against KRAS G12D; > 11.1 µM against KRAS G12V. Further, the IC50 against HRAS and on NRAS was > 11.1 µM throughout.

Turning to `Nc1nc2c(-c3nccc4c3sc3nc(OC[C@@]56CCCN5C[C@H](F)C6)nc(N5C[C@H]6CC[C@@H](C5)N6)c34)ccc(F)c2s1` [Ex-16, 4-(4-((1R,5S)-3,8-diazabicyclo[3.2.1]octan-3-yl)-2-(((2R,7aS)-2-fluorotetrahydro-1H-pyrrolizin-7a(5H)-yl)methoxy)pyrido[4′,3′:4,5]thieno [2,3-d]pyrimidin-8-yl)-7-fluorobenzo[d]thiazol-2-amine], the IC50 against KRAS WT was > 11.1 µM; at PANC08.13 cells, 9.74 µM; against KRAS G12D, 0.283 µM; at KRAS G12V, > 11.1 µM.
